Assay results published in ChEMBL document CHEMBL4622904, “The discovery of azetidine-piperazine di-amides as potent, selective and reversible monoacylglycerol lipase (MAGL) inhibitors” (Bioorg Med Chem Lett, 2020).

Columns and labels:
[1] = biological target: Plasma kallikrein (Homo sapiens) (UniProt P03952); assay: Inhibition of kallikrein (unknown origin) at 10 uM relative to control
[2] = biological target: Prothrombin (Homo sapiens) (UniProt P00734); assay: Inhibition of thrombin (unknown origin) at 10 uM relative to control
Chymase (Homo sapiens) = biological target: T1, Chymase (Homo sapiens) (UniProt P23946); assay: Inhibition of chymase (unknown origin) at 10 uM relative to control
T1 sequence (whole entry): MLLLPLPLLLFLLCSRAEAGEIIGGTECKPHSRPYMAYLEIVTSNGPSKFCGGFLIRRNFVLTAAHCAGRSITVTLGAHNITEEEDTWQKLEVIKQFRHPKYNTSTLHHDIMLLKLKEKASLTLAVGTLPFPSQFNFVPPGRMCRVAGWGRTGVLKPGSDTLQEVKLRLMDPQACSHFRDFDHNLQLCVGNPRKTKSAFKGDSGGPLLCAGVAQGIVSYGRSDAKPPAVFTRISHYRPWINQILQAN

[3] = biological target: T2, Cathepsin G (Homo sapiens) (UniProt P08311); assay: Inhibition of cathepsin G (unknown origin) at 10 uM relative to control
T2 sequence (whole entry): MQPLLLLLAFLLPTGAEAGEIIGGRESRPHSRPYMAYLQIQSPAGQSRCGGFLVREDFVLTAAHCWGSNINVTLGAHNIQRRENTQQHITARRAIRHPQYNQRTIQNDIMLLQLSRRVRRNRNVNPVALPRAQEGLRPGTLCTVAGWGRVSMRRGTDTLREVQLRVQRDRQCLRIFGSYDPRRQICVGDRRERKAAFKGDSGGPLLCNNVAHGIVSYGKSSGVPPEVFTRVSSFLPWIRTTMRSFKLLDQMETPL

[4] = biological target: T3, Myeloblastin (Homo sapiens) (UniProt P24158); assay: Inhibition of proteinase 3 (unknown origin) at 10 uM relative to control
T3 sequence (whole entry): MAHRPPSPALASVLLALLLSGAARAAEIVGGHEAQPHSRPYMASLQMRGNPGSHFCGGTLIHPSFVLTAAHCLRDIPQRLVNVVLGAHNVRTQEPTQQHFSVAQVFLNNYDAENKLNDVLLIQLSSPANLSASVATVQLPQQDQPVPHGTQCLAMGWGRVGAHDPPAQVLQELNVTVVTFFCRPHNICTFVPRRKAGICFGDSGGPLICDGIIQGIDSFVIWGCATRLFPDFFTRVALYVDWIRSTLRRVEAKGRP

[5] = biological target: T4, Coagulation factor VII (Homo sapiens) (UniProt P08709); assay: Inhibition of factor 7a (unknown origin) at 10 uM relative to control
T4 sequence (whole entry): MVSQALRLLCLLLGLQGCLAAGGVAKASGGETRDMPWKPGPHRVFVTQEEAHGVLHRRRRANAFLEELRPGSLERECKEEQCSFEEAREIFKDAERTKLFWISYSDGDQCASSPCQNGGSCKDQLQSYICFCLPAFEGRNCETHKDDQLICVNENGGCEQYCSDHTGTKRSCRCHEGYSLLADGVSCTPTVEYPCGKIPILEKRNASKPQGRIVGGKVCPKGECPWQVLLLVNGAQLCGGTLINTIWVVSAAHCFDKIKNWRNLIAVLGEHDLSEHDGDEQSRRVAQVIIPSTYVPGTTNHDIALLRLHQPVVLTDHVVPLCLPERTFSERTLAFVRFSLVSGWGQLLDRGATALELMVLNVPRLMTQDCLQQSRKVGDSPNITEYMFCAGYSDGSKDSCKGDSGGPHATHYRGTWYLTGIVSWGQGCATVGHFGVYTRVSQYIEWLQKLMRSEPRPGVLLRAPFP

[6] = biological target: Urokinase-type plasminogen activator (Homo sapiens) (UniProt P00749); assay: Inhibition of urokinase (unknown origin) at 10 uM relative to control
Bacteria = assay: Inhibition of bacterial streptokinase at 10 uM relative to control
Trypsin (Homo sapiens) = Trypsin (Homo sapiens) (UniProt P07477+P07478+P35030); assay: Inhibition of trypsin (unknown origin) at 10 uM relative to control; format: protein assay
[7] = biological target: Coagulation factor X (Homo sapiens) (UniProt P00742); assay: Inhibition of factor 10a (unknown origin) at 10 uM relative to control
Sequence of Coagulation factor X (Homo sapiens) (P00742 41-179 limits assumed): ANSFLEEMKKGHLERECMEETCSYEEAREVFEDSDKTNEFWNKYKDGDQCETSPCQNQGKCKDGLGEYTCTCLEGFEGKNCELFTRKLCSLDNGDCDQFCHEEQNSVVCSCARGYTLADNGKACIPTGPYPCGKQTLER
Sequence of Coagulation factor X (Homo sapiens) (P00742 235-488 limits assumed): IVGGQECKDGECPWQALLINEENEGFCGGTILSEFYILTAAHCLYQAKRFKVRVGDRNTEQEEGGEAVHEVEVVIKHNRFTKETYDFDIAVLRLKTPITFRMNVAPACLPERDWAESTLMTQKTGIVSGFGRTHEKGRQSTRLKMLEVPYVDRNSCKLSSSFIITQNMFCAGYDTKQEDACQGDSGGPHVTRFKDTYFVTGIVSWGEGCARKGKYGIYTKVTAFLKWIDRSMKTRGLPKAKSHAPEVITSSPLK

[8] = AUClast in rat at 10 mg/kg, po; format: ADME, organism-based; parameters: dose 10 mg/kg, route oral, time 0 - last; details: in vivo
[9] = Half life in rat at 10 mg/kg, po; format: ADME, organism-based; details: in vivo
[10] = Clearance in rat at 10 mg/kg, po; format: ADME, organism-based; details: in vivo
[11] = Volume of distribution at steady state in rat at 10 mg/kg, po; format: ADME, organism-based; details: in vivo
[12] = Oral bioavailability in dog at 10 mg/kg; format: ADME, organism-based, Canis lupus familiaris; details: in vivo
[13] = Tmax in dog at 10 mg/kg, po; format: ADME, organism-based, Canis lupus familiaris; details: in vivo
[14] = Cmax in dog at 10 mg/kg, po; format: ADME, organism-based, Canis lupus familiaris; parameters: dose 10 mg/kg, route oral; details: in vivo
[15] = AUClast in dog at 10 mg/kg, po; format: ADME, organism-based, Canis lupus familiaris; parameters: dose 10 mg/kg, route oral, time 0 - last; details: in vivo
[16] = Half life in dog at 10 mg/kg, po; format: ADME, organism-based, Canis lupus familiaris; details: in vivo
[17] = Clearance in dog at 10 mg/kg, po; format: ADME, organism-based, Canis lupus familiaris; details: in vivo
[18] = Volume of distribution at steady state in dog at 10 mg/kg, po; format: ADME, organism-based, Canis lupus familiaris; details: in vivo
[19] = Oral bioavailability in monkey at 10 mg/kg; format: ADME, organism-based, Macaca mulatta; details: rhesus monkey, in vivo
[20] = Tmax in monkey at 10 mg/kg, po; format: ADME, organism-based, Macaca mulatta; details: rhesus monkey, in vivo
[21] = Cmax in monkey at 10 mg/kg, po; format: ADME, organism-based, Macaca mulatta; parameters: dose 10 mg/kg, route oral; details: rhesus monkey, in vivo
[22] = AUClast in monkey at 10 mg/kg, po; format: ADME, organism-based, Macaca mulatta; parameters: dose 10 mg/kg, time 0 - last, route oral; details: rhesus monkey, in vivo
[23] = Half life in monkey at 10 mg/kg, po; format: ADME, organism-based, Macaca mulatta; details: rhesus monkey, in vivo
[24] = Clearance in monkey at 10 mg/kg, po; format: ADME, organism-based, Macaca mulatta; details: rhesus monkey, in vivo
[25] = Volume of distribution at steady state in monkey at 10 mg/kg, po; format: ADME, organism-based, Macaca mulatta; details: rhesus monkey, in vivo

Sequence of Plasma kallikrein (Homo sapiens) (P03952 20-390 limits assumed): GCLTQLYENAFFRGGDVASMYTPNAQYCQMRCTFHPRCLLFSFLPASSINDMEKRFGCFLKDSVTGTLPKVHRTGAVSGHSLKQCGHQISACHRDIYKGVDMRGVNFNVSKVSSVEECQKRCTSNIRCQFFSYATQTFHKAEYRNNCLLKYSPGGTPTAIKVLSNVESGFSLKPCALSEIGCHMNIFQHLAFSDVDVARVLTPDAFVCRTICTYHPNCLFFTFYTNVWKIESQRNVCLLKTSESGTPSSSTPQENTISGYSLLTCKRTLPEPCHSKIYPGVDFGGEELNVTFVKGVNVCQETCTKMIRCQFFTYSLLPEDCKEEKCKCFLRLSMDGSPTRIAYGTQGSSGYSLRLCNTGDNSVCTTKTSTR
Sequence of Plasma kallikrein (Homo sapiens) (P03952 391-638 limits assumed): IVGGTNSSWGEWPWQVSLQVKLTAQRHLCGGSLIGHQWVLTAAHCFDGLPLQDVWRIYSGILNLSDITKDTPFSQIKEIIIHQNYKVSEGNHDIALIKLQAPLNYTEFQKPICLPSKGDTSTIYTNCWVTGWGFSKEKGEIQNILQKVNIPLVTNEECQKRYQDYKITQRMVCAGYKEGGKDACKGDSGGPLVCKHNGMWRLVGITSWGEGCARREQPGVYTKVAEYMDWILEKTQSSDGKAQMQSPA

For `O=C(c1ccc2c(ccn2-c2ccc(F)cc2)c1)N1CC(N2CCN(C(=O)c3nccs3)CC2)C1`, which inhibition [1] is on record?
The inhibition was 4%.

What about the inhibition [2] of the same compound?
The inhibition was -1%.

What about the inhibition (Chymase (Homo sapiens)) of the same compound?
The inhibition was 11%.

What about the inhibition [3] of the same compound?
The inhibition was 13%.

And the inhibition [4]?
The inhibition was 7%.

What about the inhibition [5] of the same compound?
The inhibition was -5%.

And the inhibition [6]?
The inhibition was 2%.

What about the inhibition (Bacteria) of the same compound?
Its inhibition is 1%.

And the inhibition (Trypsin (Homo sapiens))?
The inhibition was -10%.

What about the inhibition [7] of the same compound?
The inhibition was 0%.

What about the AUC(0-t) [8] of the same compound?
The AUC(0-t) was 3730 ng·h/mL.

What about the half-life [9] of the same compound?
The half-life was 6.82 h.

What about the CL/F [10] of the same compound?
Its CL/F is 19.2 mL/min/kg.

And the Vdss [11]?
The Vdss was 1.22 L/kg.

What about the bioavailability [12] of the same compound?
The bioavailability was 79%.

What about the Tmax [13] of the same compound?
Its Tmax is 2 h.

And the Cmax [14]?
Its Cmax is 2860 ng/mL.

And the AUC(0-t) [15]?
Its AUC(0-t) is 33600 ng·h/mL.

And the half-life [16]?
The half-life was 7.46 h.

What about the CL/F [17] of the same compound?
The CL/F was 4.35 mL/min/kg.

What about the Vdss [18] of the same compound?
The Vdss was 0.56 L/kg.

And the bioavailability [19]?
The bioavailability was 82%.

What about the Tmax [20] of the same compound?
The Tmax was 2.67 h.

And the Cmax [21]?
The Cmax was 5300 ng/mL.

What about the AUC(0-t) [22] of the same compound?
The AUC(0-t) was 33500 ng·h/mL.

What about the half-life [23] of the same compound?
Its half-life is 4.62 h.

And the CL/F [24]?
The CL/F was 4.46 mL/min/kg.

And the Vdss [25]?
The Vdss was 0.429 L/kg.
